Patent publication US8981094B2, “Piperidine/piperazine derivatives” (Janssen Pharmaceutica N.V., priority 2007, dated 2015)

What was measured:
[1] = biological target: T1, human DGAT1 (Homo sapiens, UniProt O75907); experiment: Inhibition of DGAT1 activity, FlashPlate assay with DGAT1 membrane preparations and substrate micelles; format: biochemical; details: pIC50 = -logIC50, IC50 values expressed in M
T1 construct: FLAG (N); made in house; host or cells: SF9 insect cells (pFastBac baculovirus); total cell membranes
T1 sequence (O75907 1-488): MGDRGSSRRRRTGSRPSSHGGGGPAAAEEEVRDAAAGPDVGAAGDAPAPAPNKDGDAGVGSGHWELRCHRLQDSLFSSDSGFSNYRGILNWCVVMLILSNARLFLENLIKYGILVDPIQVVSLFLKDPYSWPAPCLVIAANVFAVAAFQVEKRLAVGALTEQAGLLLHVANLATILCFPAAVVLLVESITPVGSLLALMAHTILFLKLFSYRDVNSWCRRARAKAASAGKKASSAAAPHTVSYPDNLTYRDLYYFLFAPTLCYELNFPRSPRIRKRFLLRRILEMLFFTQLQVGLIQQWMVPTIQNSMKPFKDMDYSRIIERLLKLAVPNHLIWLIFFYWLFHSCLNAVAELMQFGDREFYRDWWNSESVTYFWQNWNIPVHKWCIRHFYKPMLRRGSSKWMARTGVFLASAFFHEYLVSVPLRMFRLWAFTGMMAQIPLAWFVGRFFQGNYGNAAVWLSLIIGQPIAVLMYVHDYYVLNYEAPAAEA
Method in brief: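 FLAG-tagged human DGAT1 membranes (expressed in Sf9 cells) were incubated 120 min at 37° C. in 50 mM Tris-HCl pH 7.4 with 150 mM MgCl2, 1 mM EDTA, 0.2% BSA, 50 μM DAG micelles (PC/PS) and 8.4 μM [^3H]-oleoylCoA. The reaction was stopped with N-ethylmaleimide and read as FlashPlate radioluminescence. Responses were normalized to enzyme/no-enzyme controls to fit dose-response curves.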

| SMILES | IC50 [1] | melting point |
| --- | --- | --- |
| Cc1cccc(Cl)c1NC(=O)N1CCN(c2ccc(NC(=O)CCCc3ccccc3)cc2)CC1 [Compound 60] | 0.0126 µM | 240.7 °C |
| Cc1cc(Br)cc(C)c1NC(=O)N1CCN(c2ccc(NC(=O)CCCc3ccccc3)cc2)CC1 [Compound 61] | 0.038 µM | 241.7 °C |
| O=C(CCCc1ccccc1)Nc1ccc(N2CCN(C(=O)Nc3c(Cl)cccc3C(F)(F)F)CC2)cc1 [Compound 62] | 0.0162 µM | 254 °C |
| O=C(CCCc1ccccc1)Nc1ccc(N2CCN(C(=O)Nc3c(F)cc(Br)cc3Br)CC2)cc1 [Compound 63] | 0.0309 µM | 218.6 °C |
| Cc1cc(C)c(NC(=O)N2CCN(c3ccc(NC(=O)CCCc4ccccc4)cc3)CC2)c(Cl)c1 [Compound 64] | 0.00708 µM | 210.6 °C |
| Cc1ccc(NC(=O)N2CCN(c3ccc(NC(=O)CCCc4ccccc4)cc3)CC2)c(C)c1 [Compound 66] | 0.0269 µM | 181.7 °C |
| O=C(CCCc1ccccc1)Nc1ccc(N2CCN(C(=O)Nc3c(F)cccc3F)CC2)cc1 [Compound 67] | 0.0603 µM | 187 °C |
| Cc1cc(C)c(NC(=O)N2CCN(c3ccc(NC(=O)CCCc4ccccc4)cc3)CC2)c(C)c1 [Compound 68] | 0.0123 µM | 223 °C |
| COc1ccccc1CNC(=O)N1CCN(c2ccc(NC(=O)CCCc3ccccc3)cc2)CC1 [Compound 71] | 1.07 µM | 183.1 °C |
| O=C(CCCc1ccccc1)Nc1ccc(N2CCN(C(=O)Nc3ccc(F)cc3F)CC2)cc1 [Compound 73] | 0.457 µM | 141.2 °C |
| CCCc1ccccc1NC(=O)N1CCN(c2ccc(NC(=O)CCCc3ccccc3)cc2)CC1 [Compound 77] | 1.66 µM | 200.2 °C |
| O=C(CCCc1ccccc1)Nc1ccc(N2CCN(C(=O)Nc3ccccc3I)CC2)cc1 [Compound 78] | 0.126 µM | 153.3 °C |
| CSc1ccccc1NC(=O)N1CCN(c2ccc(NC(=O)CCCc3ccccc3)cc2)CC1 [Compound 79] | 1.45 µM | 127.1 °C |
| O=C(CCCc1ccccc1)Nc1ccc(N2CCN(C(=O)Nc3cc(C(F)(F)F)ccc3Cl)CC2)cc1 [Compound 81] | 3.31 µM | 170.3 °C |
| O=C(CCCc1ccccc1)Nc1ccc(N2CCN(C(=O)Nc3c(F)cc(F)cc3F)CC2)cc1 [Compound 82] | 0.0759 µM | 173.6 °C |
| O=C(CCCc1ccccc1)Nc1ccc(N2CCN(C(=O)Nc3ccccc3OC(F)(F)F)CC2)cc1 [Compound 84] | 1.48 µM | 162.2 °C |
| CC(C)(C)CC(C)(C)NC(=O)N1CCN(c2ccc(NC(=O)CCCc3ccccc3)cc2)CC1 [Compound 85] | 1.95 µM | 202.3 °C |
| CCC(C)c1ccccc1NC(=O)N1CCN(c2ccc(NC(=O)CCCc3ccccc3)cc2)CC1 (stereo not drawn) [Compound 86] | 1.7 µM | 207.8 °C |
| O=C(CCCc1ccccc1)Nc1ccc(N2CCN(C(=O)Nc3c(F)c(F)c(F)c(F)c3F)CC2)cc1 [Compound 87] | 3.31 µM | 181.2 °C |
| O=C(CCCc1ccccc1)Nc1ccc(N2CCN(C(=O)Nc3c(Cl)c(Cl)cc(Cl)c3Cl)CC2)cc1 [Compound 88] | 0.479 µM | 225.1 °C |
| CC(C)(C)c1ccccc1NC(=O)N1CCN(c2ccc(NC(=O)CCCc3ccccc3)cc2)CC1 [Compound 89] | 2.19 µM | 227.2 °C |
| CC(C)c1ccccc1NC(=O)N1CCN(c2ccc(NC(=O)CCCc3ccccc3)cc2)CC1 [Compound 90] | 0.589 µM | 214.2 °C |
| CCOC(=O)c1ccccc1NC(=O)N1CCN(c2ccc(NC(=O)CCCc3ccccc3)cc2)CC1 [Compound 91] | 5.5 µM | 194.7 °C |
| COC(=O)c1ccccc1NC(=O)N1CCN(c2ccc(NC(=O)CCCc3ccccc3)cc2)CC1 [Compound 92] | 7.41 µM | 165.4 °C |
